{
  "source": "patent US20160115225A1",
  "about": "“Methods of Reducing Methylglyoxal (MGO) Modification of Recombinant Proteins in Cell Culture” (AbbVie Inc., priority 2014, published 2016)",
  "system": "adalimumab producing cell line 1",
  "test": "WCX-10 quantification of acidic species of adalimumab, bioreactor culture, cell line 1",
  "assay_type": "cell-based",
  "method": "Two adalimumab producing cell lines were employed in the studies covered here. Upon thaw, cells were cultured in their respective growth media in a combination of vented non-baffled shake flasks (Corning) on a shaker platform at 110 RPM (cell line 1) and 140 RPM (cell line 2) and 10 L or 20 L wave bags (GE). Cultures were propagated in a 35° C., 5% CO2 incubator for cell line 1 and 36° C., 5% CO2 incubator for cell line 2 to obtain the required number of cells to be able to initiate production stage cultures. For the bioreactor (3 L Applikon) experiments (Examples 1, 2 and 3), 3 L, bioreactors (1.5 L working volume) were initiated at 35° C. (cell line 1) and 36° C. (cell line 2), 30% DO, 200 rpm, pH of 7.1. In some of the conditions, pH was ramped down to 6.8 in three days and kept at pH 6.8 thereafter. The inclusion of pH ramp for a particular condition is indicated by the final pH in the experimental design. If the final pH is 7.1, then it indicates no pH ramp was performed, whereas if the final pH is 6.8, a pH ramp was performed on day 3 from pH 7.1 to pH 6.8. In some of the conditions, a temperature shift was performed. When temperature shift was performed, the temperature was lowered to 33° C. Again, the conditions where such a temperature shift was performed can be identified from the final temperature in the experimental design. Cultures were run in extended batch mode with the addition of a desired amount of 40% glucose stock solution was fed based on glucose measurements. The harvest procedure of the reactors involved centrifugation of the culture sample at 3,000 RPM for 30 min and storage of supernatant in PETG bottles at −80° C. before submission for protein A purification, WCX-10 analysis and Lys-C peptide mapping. This method is employed towards the quantification of the acidic species and other charge variants present in cell culture harvest samples. Cation exchange chromatography was performed on a Dionex ProPac WCX-10, Analytical column (Dionex, Calif.). The mobile phases used were 10 mM Sodium Phosphate dibasic pH 7.5 (Mobile phase A) and 10 mM Sodium Phosphate dibasic, 500 mM Sodium Chloride pH 5.5 (Mobile phase B). A binary gradient (94% A, 6% B: […]; 84% A, 16% B: 20-22 min; 0% A, 100% B: 22-28 min; 94% A, 6% B: 28-34 min) was used with detection at 280 nm. Quantitation is based on the relative area percent of detected peaks. The peaks that elute at relative residence time earlier than the main peak corresponding to the drug product are together represented as the acidic peaks. Cell line 1 was cultured in IVGN production medium supplemented with or without 2DDG (0.25 g/l). Prior to this experiment, a study was performed in a shake flask culture to evaluate the dose effect of 2DDG on this cell line and optimize a dose range of reactor evaluation (data not shown). In this experiment, the cultures were performed in 3 L bioreactors in batch format (pH 7.1, DO—30%, 200 rpm) with only glucose feed as described in Example 1. Temperature shift was implemented in some tests (35° C. to 33° C. on day 5 of culture). Both 2DDG supplementation and temperature shift were employed as methods to reduce glucose consumption of the cells in culture. The hypothesis was that the reduction in glucose consumption will translate into reduced synthesis of MGO in cell culture. As a result, a reduction in MGO modification and acidic species of the protein would be achieved. In this experiment, the cultures were performed in 3 L bioreactors in batch format (DO—30%, 200 rpm) with only glucose feed as described in the materials and methods. The control condition was run at a constant temperature of 35° C., constant pH of 7.1 without any supplementation of 2DDG or arginine (condition #10). […]",
  "data": [
    {"smiles": "O=CC[C@@H](O)[C@H](O)[C@H](O)CO", "note": "[Test 2DDG, 2-Deoxy-D-Glucose]", "values": [
      {"measurement": "percentage of acidic species", "setting": "Example 2, 2DDG 0.25 g/l with temperature shift 35° C. to 33° C. on day 5, Day 10 harvest, control 26.6%", "value": 17.4, "unit": "%"},
      {"measurement": "percentage of acidic species", "setting": "Example 2, 2DDG 0.25 g/l, no temperature shift, Day 10 harvest, control 26.6%", "value": 22.9, "unit": "%"},
      {"measurement": "percentage of acidic species", "setting": "Example 3, 2DDG 0.25 g/l alone, day 11 harvest, control 68.4%", "value": 48.5, "unit": "%"},
      {"measurement": "percentage of acidic species", "setting": "Example 3, 2DDG 0.25 g/l and temperature shift, day 11 harvest, control 68.4%", "value": 22.7, "unit": "%"},
      {"measurement": "percentage of acidic species", "setting": "Example 3, 2DDG, temperature shift and arginine supplementation (4 g/l), day 11 harvest", "value": 12.6, "unit": "%"},
      {"measurement": "percentage of acidic species", "setting": "Example 3, 2DDG, temperature shift and lower pH (6.8), day 11 harvest", "value": 15.2, "unit": "%"},
      {"measurement": "percentage of acidic species", "setting": "Example 3, 2DDG, temperature shift, lower pH and arginine supplementation, day 11 harvest", "value": 12.0, "unit": "%"}
    ]}
  ]
}
